In the supplement of paper PMC11208160:

experiment: recombinant UMI read abundance after kanamycin selection (control-corrected) (log10(CPM+1)); higher = more efficient recombination; extreme values may be limits of the assay; sequences stand for … in AGTGCAGAGAAAATCGGCCAGTTTTCTCTGCCTGCAGTCCGCATGCCGTGGGACCCCTTGGGTTCTAACCTGTTGCCTAGATTTATGCAGCGGACTGCCTTTCTCCCAAAGTGATAAACCGG…AGGTTGGTTTCACT; site = the 11-nt donor
Summary of the method: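 In a pooled Escherichia coli screen for the IS621 bridge recombinase, donor and donor-binding-loop pairs were each placed with a 12-nt UMI on a plasmid bearing a promoterless kanamycin gene. This library was co-electroporated with a target plasmid encoding a fixed target and T7-inducible recombinase, and cells were plated either on IPTG (0.07 mM) plus kanamycin or without selection, in two replicates each. Recombinant UMIs were PCR-amplified across the donor–target junction and sequenced, and counts were converted to CPM, averaged over replicates, scaled by control-derived factors and reported as log10(CPM+1).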

Row | Sequence | recombinant UMI read abundance (log10)
1 | CACTCGACATGGACCGGTTTTCCCGGTAATCCGTATTTGGG (site CATTCGACTCC) | 0.0164
2 | CTGGTAACATGGACCGGTTTTCCCGGTAATCCGTATTTGCA (site CTGGCAACTTG) | 0.197
3 | AGGATAACATGGACCGGTTTTCCCGGTAATCCGTATTTGCA (site AGGAAGACTTG) | 1.01
4 | CTCCAAACATGGACCGGTTTTCCCGGTAATCCGTATTTGGC (site CTCCAAACTGC) | 0
5 | TATTGGACATGGACCGGTTTTCCCGGTAATCCGTATTTGAC (site AATTGGACTGT) | 0
6 | CTAGAATCATGGACCGGTTTTCCCGGTAATCCGTATTTGAG (site CTAGAATCTCT) | 3.11
7 | TATGCTACATGGACCGGTTTTCCCGGTAATCCGTATTTGGC (site TATGCTACTGC) | 0.253
8 | CTAGTAACATGGACCGGTTTTCCCGGTAATCCGTATTTGAC (site CTAGTACCTGT) | 0
9 | CGTGGAACATGGACCGGTTTTCCCGGTAATCCGTATTTGGT (site CGTGGAACTAT) | 1.26
10 | AGCATTTCATGGACCGGTTTTCCCGGTAATCCGTATTTGAC (site AGCGTTTCTGT) | 0
11 | AGCCTAGCATGGACCGGTTTTCCCGGTAATCCGTATTTGTT (site AGCCTAACTAA) | 0.0384
12 | GTTCGGCCATGGACCGGTTTTCCCGGTAATCCGTATTTGGT (site GTTCGGCCTAC) | 0.00718
13 | CACTGCTCATGGACCGGTTTTCCCGGTAATCCGTATTTGAA (site CACTGCTCTTT) | 2.09
14 | CGGTCATCATGGACCGGTTTTCCCGGTAATCCGTATTTGTT (site CGATCATCTAG) | 0
15 | CGAACATCATGGACCGGTTTTCCCGGTAATCCGTATTTGCT (site CGAACATCTAG) | 2.13
16 | CAGGCAGCATGGACCGGTTTTCCCGGTAATCCGTATTTGCT (site CATGCAGCTAG) | 0
17 | CTTCTCTCATGGACCGGTTTTCCCGGTAATCCGTATTTGCA (site CTTCTCTCTTT) | 0.83
18 | AATTACGCATGGACCGGTTTTCCCGGTAATCCGTATTTGGA (site AATTATGCTTC) | 0.344
19 | CTTGGTCCATGGACCGGTTTTCCCGGTAATCCGTATTTGCG (site CTTGGTCCTCG) | 0.00731
20 | GGACGCTCATGGACCGGTTTTCCCGGTAATCCGTATTTGAG (site GGACGCTCTCT) | 1.55
21 | CTGCAAACATGGACCGGTTTTCCCGGTAATCCGTATTTGCA (site CTGAAAACTTG) | 0
22 | ACCTAGGCATGGACCGGTTTTCCCGGTAATCCGTATTTGGG (site ACCTAGCCTCC) | 0.0364
23 | ACAGTATCATGGACCGGTTTTCCCGGTAATCCGTATTTGCA (site TCAGCATCTTG) | 2.37
24 | AATGTGACATGGACCGGTTTTCCCGGTAATCCGTATTTGCT (site AATGTAACTAG) | 2.04
25 | ACAGTATCATGGACCGGTTTTCCCGGTAATCCGTATTTGCA (site AGAGTATCTGG) | 0.0344

Row | Sequence | recombinant UMI read abundance (log10)
26 | AGCCTTTCATGGACCGGTTTTCCCGGTAATCCGTATTTGAC (site AGCGTTTCTGT) | 0
27 | GGTACGACATGGACCGGTTTTCCCGGTAATCCGTATTTGTT (site GGTACGACTAA) | 0.444
28 | ACAGTATCATGGACCGGTTTTCCCGGTAATCCGTATTTGCA (site ACAGTCTCTTC) | 0.0179
29 | TAGCCTTCATGGACCGGTTTTCCCGGTAATCCGTATTTGGA (site TAGCCTTCTAC) | 0.0179
30 | GGTCGATCATGGACCGGTTTTCCCGGTAATCCGTATTTGCG (site GGTCGATCTCG) | 0.598
31 | AGTGATCCATGGACCGGTTTTCCCGGTAATCCGTATTTGGT (site AGTGATCCTAC) | 0.0964
32 | TTAAGGCCATGGACCGGTTTTCCCGGTAATCCGTATTTGAC (site ATAAGGCCTGT) | 0
33 | GCGCAAACATGGACCGGTTTTCCCGGTAATCCGTATTTGCT (site GCGAAAACTAG) | 0
34 | GAATGCCCATGGACCGGTTTTCCCGGTAATCCGTATTTGCA (site GAATGACCTTG) | 0
35 | GATTGGACATGGACCGGTTTTCCCGGTAATCCGTATTTGAC (site GATTAGACTGT) | 0
36 | TCAGAGCCATGGACCGGTTTTCCCGGTAATCCGTATTTGCG (site TCAGAGTCTCG) | 2.36
37 | GCTTGCCCATGGACCGGTTTTCCCGGTAATCCGTATTTGAT (site GCTTGCGCTAT) | 0.0038
38 | GGTTCGTCATGGACCGGTTTTCCCGGTAATCCGTATTTGTT (site GGTGCGTCTAA) | 0.00284
39 | AAACGGGCATGGACCGGTTTTCCCGGTAATCCGTATTTGCG (site AAACGGGCTCG) | 0.661
40 | TAGCTACCATGGACCGGTTTTCCCGGTAATCCGTATTTGAA (site TAGCTACCTTT) | 0.00616
41 | TGCTAGGCATGGACCGGTTTTCCCGGTAATCCGTATTTGGA (site TGCTAGGCTTC) | 0.261
42 | CAAGTCACATGGACCGGTTTTCCCGGTAATCCGTATTTGCG (site CAAGTCACTCC) | 0.632
43 | TCAGTATCATGGACCGGTTTTCCCGGTAATCCGTATTTGCG (site ACAGTATCTTG) | 0
44 | CCACGGACATGGACCGGTTTTCCCGGTAATCCGTATTTGGT (site CCACGGACTAC) | 0.0137
45 | GTGCATCCATGGACCGGTTTTCCCGGTAATCCGTATTTGGT (site GTGCATTCTAC) | 0.438
46 | CAGGCGACATGGACCGGTTTTCCCGGTAATCCGTATTTGGG (site CAGACGACTCC) | 0.0355
47 | GATTATCCATGGACCGGTTTTCCCGGTAATCCGTATTTGCT (site GATTATTCTAG) | 0
48 | TTACGAACATGGACCGGTTTTCCCGGTAATCCGTATTTGAC (site TTACGAACTGT) | 2.28
49 | GAGCACACATGGACCGGTTTTCCCGGTAATCCGTATTTGAT (site GAGCACACTAT) | 1.9
50 | GTTCGAGCATGGACCGGTTTTCCCGGTAATCCGTATTTGCA (site TTTCGAGCTTG) | 0.829

Row | Sequence | recombinant UMI read abundance (log10)
51 | CGGAGTCCATGGACCGGTTTTCCCGGTAATCCGTATTTGTC (site CGGAATCCTAA) | 0
52 | ACGAAGTCATGGACCGGTTTTCCCGGTAATCCGTATTTGCA (site AGGAAGACTTG) | 0
53 | AGGCAGGCATGGACCGGTTTTCCCGGTAATCCGTATTTGCA (site AGGCAGGCTTG) | 2.63
54 | GAATGCCCATGGACCGGTTTTCCCGGTAATCCGTATTTGCA (site GAATGCCCTTG) | 1.25
55 | AATTCTGCATGGACCGGTTTTCCCGGTAATCCGTATTTGGA (site AATTATGCTTC) | 0.384
56 | CAAGATTCATGGACCGGTTTTCCCGGTAATCCGTATTTGTT (site TAAGATTCTAA) | 0.464
57 | AGGCTCCCATGGACCGGTTTTCCCGGTAATCCGTATTTGTG (site AGGCTCCCTCA) | 0.0267
58 | CTTAGGCCATGGACCGGTTTTCCCGGTAATCCGTATTTGAA (site CTTAGGCCTTT) | 0.104
59 | AATCTAACATGGACCGGTTTTCCCGGTAATCCGTATTTGCT (site AATGTAACTAG) | 0.245
60 | CTGCTATCATGGACCGGTTTTCCCGGTAATCCGTATTTGCT (site CTGCTAGCTAG) | 0.0179
61 | CCCTCTACATGGACCGGTTTTCCCGGTAATCCGTATTTGCT (site CCCTCTACTAG) | 1.58
62 | AGTTACGCATGGACCGGTTTTCCCGGTAATCCGTATTTGAT (site AGTTACGCTAT) | 1.72
63 | GAAGCTTCATGGACCGGTTTTCCCGGTAATCCGTATTTGTT (site GAAGTTTCTAA) | 0
64 | TAGTCGACATGGACCGGTTTTCCCGGTAATCCGTATTTGGG (site GAGTCGACTCC) | 0.0292
65 | GATTGGACATGGACCGGTTTTCCCGGTAATCCGTATTTGAC (site GATTGCACTGT) | 0
66 | CAAAATACATGGACCGGTTTTCCCGGTAATCCGTATTTGGC (site CAAAATACTGC) | 0
67 | CAATTCCCATGGACCGGTTTTCCCGGTAATCCGTATTTGGT (site CAATTCCCTAA) | 0.173
68 | CAAGTCACATGGACCGGTTTTCCCGGTAATCCGTATTTGGG (site CAAGTCACTAC) | 0.0634
69 | CCGTTAGCATGGACCGGTTTTCCCGGTAATCCGTATTTGGG (site CCGTTAGCTCG) | 0
70 | CCCGGTACATGGACCGGTTTTCCCGGTAATCCGTATTTGCA (site CCCGGTTCTTG) | 0
71 | CAATCCTCATGGACCGGTTTTCCCGGTAATCCGTATTTGCC (site CACTCCTCTGG) | 1.14
72 | CCGTTAGCATGGACCGGTTTTCCCGGTAATCCGTATTTGGG (site CCGTTAGCTCA) | 0.0109
73 | CCCTTCTCATGGACCGGTTTTCCCGGTAATCCGTATTTGGG (site CCCTTCGCTCC) | 0.0128
74 | AATCTGTCATGGACCGGTTTTCCCGGTAATCCGTATTTGAC (site AATCTGTCTGT) | 0
75 | GTATGCACATGGACCGGTTTTCCCGGTAATCCGTATTTGGA (site GTATGCACTTT) | 0.924
